Here are results for 13 molecules from ChEMBL document CHEMBL1201862, “PubChem BioAssay data set” (2004).

Holding throughout (experiment): growth of human tumour cells (NCI), 48 h
Experiment [1] concerns SR.
The subject of experiment [2] is SNB-19.
Experiment [3] deals with PC-3.
For experiment [4], the system named is NCI-H460.
Experiment [5] concerns SN12C.
The test system of experiment [6] is UACC-62.
Experiment [7] has as its system SK-MEL-28.
Experiment [8] concerns Malme-3M.
For experiment [9], the system named is NCI-H23.
The test system of experiment [10] is SW-620.
The test system of experiment [11] is NCI-H522.
In experiment [12] the test system is SF-539.
The test system of experiment [13] is HCT-15.
In experiment [14] the test system is HCC 2998.
Experiment [15] relates to HL-60.
The subject of experiment [16] is MDA-N.
The subject of experiment [17] is EKVX.
Experiment [18] relates to SNB-75.
In experiment [19] the test system is BT-549.

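Step 1: Grow cells in 96-well plates. Step 2: Expose to compound for 48 hours at 5 concentrations. Step 3: Interpolate endpoints linearly; if unreached, use highest concentration. At the GI50, growth is halved.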 Activity calls are given as the source filed them. Cut-off read from the data, not from the text of the source: active = GI50 up to about 1.1 µM and inactive = higher.

Regarding `CNC1=Nc2ccccc2C(=S)N2CSC[C@@H]12`, the GI50 in experiment [1] was 7.55 µM (inactive); in experiment [2], > 100 µM (inactive); in [3], > 100 µM (inactive); in experiment [4] it was > 100 µM (inactive); in experiment [5], > 100 µM (inactive); in experiment [6] it was > 100 µM (inactive). Moreover, the GI50 in experiment [7], in experiment [8], in experiment [9], in experiment [10], in experiment [11] and in experiment [12] was > 100 µM (inactive) throughout. The GI50 in [13] was over 100 µM; in [14] it was > 100 µM (inactive).

In the case of `Cc1c(-c2ccccn2)ccc2ccccc12`, the GI50 in experiment [1] was 56.1 µM (inactive); in experiment [15], 44.6 µM (inactive); in [16] it was 61 µM (inactive); in experiment [17] it was 52.6 µM (inactive); in experiment [2], > 100 µM (inactive); in experiment [3], 47.3 µM (inactive). Also, the GI50 in experiment [4] is 42.4 µM (inactive); in [5] it was 61.1 µM (inactive); in experiment [6], 47.1 µM (inactive); in experiment [7] it was 85.5 µM (inactive); in experiment [8], 69.7 µM (inactive); in experiment [18], 27.9 µM (inactive). The GI50 in [9] is 90.2 µM (inactive); in experiment [10], 80.4 µM (inactive); in experiment [12], > 100 µM (inactive); in [13] it was 27.7 µM; in [14], 37.8 µM (inactive).

Regarding `NCCSc1nc(-c2ccccc2)c(-c2ccccc2)o1`, the GI50 in experiment [1] is 7.38 µM (inactive); in experiment [19], > 100 µM (inactive); in experiment [17], > 100 µM (inactive); in experiment [2], > 100 µM (inactive); in [3], > 100 µM (inactive); in experiment [4] it was 65.9 µM (inactive). The GI50 in experiment [5] was 77.8 µM (inactive); in [6] it was > 100 µM (inactive); in experiment [7] it was > 100 µM (inactive); in [8] it was > 100 µM (inactive); in experiment [18], 21 µM (inactive); in [9], 17.7 µM (inactive). The GI50 was > 100 µM (inactive) in experiment [10], 29.6 µM (inactive) in experiment [11], > 100 µM (inactive) in experiment [12] and over 100 µM in experiment [13].

Consider `C#CCn1c(=O)c2ccccc2n(CC#C)c1=O`, for which the GI50 in experiment [16], in [17], in experiment [2], in experiment [3], in experiment [4] and in [5] was > 10 µM (inactive) throughout. The GI50 in [7], in [8], in experiment [18], in experiment [9], in experiment [10] and in experiment [11] was > 10 µM (inactive) each time. Also, the GI50 is > 10 µM (inactive) in experiment [12], over 10 µM in [13] and > 10 µM (inactive) in experiment [14].

Turning to `O=C(/C=C/c1cccs1)c1ccccc1Cl`, the GI50 is 4.2 µM (inactive) in experiment [1]; 5.81 µM (inactive) in experiment [15]; 15.6 µM (inactive) in [16]; 15.1 µM (inactive) in [17]; 15.6 µM (inactive) in experiment [2]; 15.4 µM (inactive) in [3]. Besides, the GI50 in experiment [4] was 15.8 µM (inactive); in experiment [5], 15.9 µM (inactive); in [6] it was 13.3 µM (inactive); in experiment [7], 16.3 µM (inactive); in experiment [8], 12.2 µM (inactive); in experiment [18], 13.4 µM (inactive). Moreover, the GI50 in [9] was 8.81 µM (inactive); in experiment [10], 14.5 µM (inactive); in [11], 2.77 µM (inactive); in experiment [12] it was 22.4 µM (inactive); in [13], 10.6 µM; in [14], 16.8 µM (inactive).

With `NS(=O)(=O)c1nnc(NC(=O)/C=C/C(=O)O)s1`, the GI50 in experiment [1], in experiment [15], in experiment [19], in experiment [16], in experiment [17] and in experiment [2] was > 100 µM (inactive) in each case. The GI50 in [4], in experiment [5], in experiment [6], in experiment [7], in experiment [8] and in [9] was > 100 µM (inactive) in each case. Further, the GI50 in experiment [10] is > 100 µM (inactive); in experiment [11] it was > 100 µM (inactive); in experiment [12] it was > 100 µM (inactive); in experiment [13] it was over 100 µM; in experiment [14], > 100 µM (inactive).

Take `CCOC(=O)/C(C#N)=C/c1ccc(CO)o1`: the GI50 in experiment [1], in experiment [16], in experiment [17], in experiment [2], in [3] and in [4] was > 100 µM (inactive) each time. Also, the GI50 in experiment [5], in [6], in [7], in experiment [8], in [18] and in experiment [9] was > 100 µM (inactive) throughout. The GI50 in experiment [10] is > 100 µM (inactive); in experiment [11] it was > 100 µM (inactive); in experiment [12] it was > 100 µM (inactive); in experiment [13], over 100 µM; in experiment [14], > 100 µM (inactive).

As to `Cc1ccnc(NC(=S)Nc2cccc(Cl)c2)c1`, the GI50 in [1] was > 100 µM (inactive); in experiment [15], > 100 µM (inactive); in [19], > 100 µM (inactive); in [17], 12.4 µM (inactive); in experiment [2] it was > 100 µM (inactive); in experiment [3], > 100 µM (inactive). In addition, the GI50 in [4] was > 100 µM (inactive); in [5], > 100 µM (inactive); in experiment [6] it was > 100 µM (inactive); in experiment [7], > 100 µM (inactive); in [18] it was 23.1 µM (inactive); in experiment [10], > 100 µM (inactive). Moreover, the values for the GI50 in [11], in [12] and in [13] were 0.02 µM (active), > 100 µM (inactive) and over 100 µM, respectively.

For the molecule `NC1=C(N2CCCCC2)C(=O)NC2=N/C(=C\c3ccccc3)C(=O)N21`, the GI50 was 43.7 µM (inactive) in experiment [1]; 32 µM (inactive) in experiment [15]; > 100 µM (inactive) in [16]; 92.9 µM (inactive) in experiment [17]; > 100 µM (inactive) in experiment [2]; > 100 µM (inactive) in [4]. The GI50 in [5], in experiment [7], in experiment [8], in experiment [18], in [9] and in experiment [10] was > 100 µM (inactive) each time. In addition, the GI50 is 63.2 µM (inactive) in experiment [11], > 100 µM (inactive) in experiment [12], over 100 µM in experiment [13] and > 100 µM (inactive) in experiment [14].

`Cc1c/c(=N/NC(=O)c2ccncc2)n2nc(N)sc2n1`: the GI50 in [1], in experiment [15], in experiment [19], in [17], in experiment [2] and in experiment [3] was > 100 µM (inactive) in each case. The GI50 in [4] is > 100 µM (inactive); in experiment [5], > 100 µM (inactive); in experiment [6] it was > 100 µM (inactive); in experiment [7], > 100 µM (inactive); in experiment [18], 40.2 µM (inactive); in experiment [9], > 100 µM (inactive). For the same molecule, the GI50 in [10] is > 100 µM (inactive); in experiment [11], > 100 µM (inactive); in experiment [12] it was > 100 µM (inactive); in experiment [13], over 100 µM; in experiment [14] it was > 100 µM (inactive).

For `COC(C)(C)[C@@H]1CCCN1C1=C(C)C(=O)OC1`, the GI50 in [1], in experiment [15], in [16], in experiment [2], in [3] and in experiment [4] was > 100 µM (inactive) in each case. Moreover, the GI50 in experiment [5] was > 100 µM (inactive); in experiment [6] it was > 100 µM (inactive); in [8], > 100 µM (inactive); in experiment [18], > 10 µM (inactive); in experiment [9] it was > 100 µM (inactive); in experiment [12], > 100 µM (inactive). Further, the GI50 in experiment [13] is over 100 µM; in experiment [14] it was > 100 µM (inactive).

For `O=C(Nc1ccccc1)c1cc2cc(CCl)ccc2oc1=O`, the GI50 was 41.5 µM (inactive) in experiment [1]; 41.6 µM (inactive) in [15]; > 100 µM (inactive) in experiment [19]; > 100 µM (inactive) in [17]; 80.4 µM (inactive) in experiment [2]; > 100 µM (inactive) in [3]. Besides, the GI50 was > 100 µM (inactive) in experiment [4]; > 100 µM (inactive) in experiment [5]; 16.6 µM (inactive) in experiment [6]; > 100 µM (inactive) in experiment [7]; > 100 µM (inactive) in [8]; 34.7 µM (inactive) in [18]. Besides, the GI50 in experiment [9] was 16.5 µM (inactive); in [10], > 100 µM (inactive); in experiment [11], 70.3 µM (inactive); in experiment [13], over 100 µM; in [14], > 100 µM (inactive).

With `C=C=C(C)[Si](C)(C)C`, the GI50 was > 100 µM (inactive) in experiment [1]; 23.7 µM (inactive) in experiment [15]; > 100 µM (inactive) in experiment [16]; > 100 µM (inactive) in experiment [2]; > 100 µM (inactive) in experiment [3]; > 100 µM (inactive) in [4]. The GI50 in experiment [5] is > 100 µM (inactive); in experiment [6], > 100 µM (inactive); in [7], > 100 µM (inactive); in experiment [8], > 100 µM (inactive); in experiment [18], 96.2 µM (inactive); in experiment [9], > 100 µM (inactive). Further, the GI50 in [10] is 90.6 µM (inactive); in experiment [11], > 100 µM (inactive); in experiment [12], > 100 µM (inactive); in experiment [13] it was over 100 µM; in [14], > 100 µM (inactive).
